Assay results taken from BindingDB's records for doi:10.1021/jm900735p (Pharmacy School of Wenzhou Medical College, 2009).

Target: Xanthine dehydrogenase/oxidase (Rattus norvegicus, UniProt P22985)
Assay: Inhibition of rat liver xanthine oxidase after 2 hrs by spectrophotometry

Sequence of Xanthine dehydrogenase/oxidase (P22985 whole entry): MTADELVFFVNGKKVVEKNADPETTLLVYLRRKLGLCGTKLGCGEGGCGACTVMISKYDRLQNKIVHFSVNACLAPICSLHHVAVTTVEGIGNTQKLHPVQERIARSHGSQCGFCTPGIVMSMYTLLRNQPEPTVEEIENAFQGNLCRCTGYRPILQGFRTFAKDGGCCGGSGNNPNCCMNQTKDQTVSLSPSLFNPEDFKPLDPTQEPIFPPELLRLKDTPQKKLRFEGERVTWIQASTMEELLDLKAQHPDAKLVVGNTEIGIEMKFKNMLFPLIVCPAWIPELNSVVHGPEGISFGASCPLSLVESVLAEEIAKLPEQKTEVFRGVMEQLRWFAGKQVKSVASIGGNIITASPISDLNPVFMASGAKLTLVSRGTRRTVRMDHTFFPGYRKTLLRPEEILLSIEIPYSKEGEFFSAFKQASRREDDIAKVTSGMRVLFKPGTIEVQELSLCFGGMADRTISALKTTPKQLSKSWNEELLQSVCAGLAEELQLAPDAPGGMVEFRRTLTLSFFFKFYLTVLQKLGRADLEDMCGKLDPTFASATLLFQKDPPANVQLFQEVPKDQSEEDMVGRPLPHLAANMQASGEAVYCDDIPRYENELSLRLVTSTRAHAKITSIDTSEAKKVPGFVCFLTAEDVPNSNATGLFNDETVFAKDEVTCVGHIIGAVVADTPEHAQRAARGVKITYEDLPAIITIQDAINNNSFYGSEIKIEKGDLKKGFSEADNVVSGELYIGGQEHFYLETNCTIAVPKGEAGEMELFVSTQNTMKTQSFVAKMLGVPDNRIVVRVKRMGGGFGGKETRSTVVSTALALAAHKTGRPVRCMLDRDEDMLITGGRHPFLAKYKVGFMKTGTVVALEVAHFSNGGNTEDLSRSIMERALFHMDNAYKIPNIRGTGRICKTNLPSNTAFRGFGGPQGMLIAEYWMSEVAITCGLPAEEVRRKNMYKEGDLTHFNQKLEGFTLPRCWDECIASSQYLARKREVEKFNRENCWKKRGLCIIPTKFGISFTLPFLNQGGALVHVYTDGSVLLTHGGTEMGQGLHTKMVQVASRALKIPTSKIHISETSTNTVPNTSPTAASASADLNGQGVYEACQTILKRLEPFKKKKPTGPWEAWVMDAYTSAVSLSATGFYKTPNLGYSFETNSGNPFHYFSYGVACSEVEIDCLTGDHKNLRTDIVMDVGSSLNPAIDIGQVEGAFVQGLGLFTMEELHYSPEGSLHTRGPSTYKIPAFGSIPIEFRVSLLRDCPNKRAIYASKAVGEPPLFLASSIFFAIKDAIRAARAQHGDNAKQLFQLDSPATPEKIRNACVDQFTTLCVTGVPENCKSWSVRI

Row | IC50 [µM] | Compound
1 | 80.3 | COc1cc([C@@H]2Oc3cc(C4Oc5cc(O)cc(O)c5C(O)C4=O)ccc3O[C@H]2CO)ccc1O (some centres not stated) [SMR000857154]
2 | 80.3 | COc1cc(C2Oc3cc(-c4oc5cc(O)cc(=O)c-5c(O)c4O)ccc3OC2CO)ccc1O (configuration not stated) [Dehydrosilylbin]
